Where a name gives a salt, the structure may show the parent alone. The source made the active and inactive calls. The calls are words filed in the database; no cut-off is given here.

As usually defined, the IC50 is the concentration that inhibits the measured activity by half.

The test system of test [1] is MDA-MB-231. In words: Cytotoxicity against human MDA-MB-231 cells assessed as reduction in cell viability incubated for 24 hrs by MTT assay. As to conditions: MDA-MB-231, 24 h. It is filed as functional, cell-based. (In general: Tetrazolium dyes change colour on reduction, which living cells bring about.)
The next test relates to MCF7. In words: Cytotoxicity against human MCF7 cells assessed as reduction in cell viability incubated for 24 hrs by MTT assay. As to conditions: MCF7, 24 h. In kind it is functional, cell-based.
A further test deals with HEK293. In words: Cytotoxicity against HEK293 cells assessed as reduction in cell viability incubated for 24 hrs by MTT assay. As to conditions: Homo sapiens, HEK293, 24 h. It is filed as ADME, cell-based.
For test [2], the system named is MDA-MB-231. In words: Cell cycle arrest in human MDA-MB-231 cells assessed as increase in accumulation at G1 phase at 0.125 to 0.25 uM incubated for 24 hrs by propidium iodide staining based flow cytometry. In kind it is functional. On the technique in general: In flow cytometry, cells or beads pass a laser one at a time.
The test system of test [3] is MDA-MB-231. Put plainly: Induction of apoptosis in human MDA-MB-231 cells at 0.125 to 0.25 uM incubated for 24 hrs by Annexin V-FITC/propidium iodide staining based flow cytometry. It is filed as functional, cell-based.
In test [4] the test system is MDA-MB-231. In words: Cell cycle arrest in human MDA-MB-231 cells assessed as increase in accumulation at subG1 phase at 0.125 uM incubated for 24 hrs by propidium iodide staining based flow cytometry. In kind it is functional.
The test system of test [5] is MDA-MB-231. In words: Cell cycle arrest in human MDA-MB-231 cells assessed as reduction in accumulation at G2/M phase at 0.125 to 0.25 uM incubated for 24 hrs by propidium iodide staining based flow cytometry. In kind it is functional.

With `CSc1ccc(C2C3=C(Oc4ccc(C[C@@H](CO)NC(=O)OC(C)(C)C)cc42)c2ccccc2OC3(C)C)cc1` (stereo not given in full), the IC50 was 21.1 µM with MDA-MB-231 [1], 32 µM in the test on MCF7 and more than 25 µM in the test on HEK293.
The matching figures for `COc1ccc(C2C3=C(Sc4ccc(Cl)cc42)c2ccccc2OC3(C)C)cc1` (stereo not given): 19.1 µM, 39 µM and more than 25 µM.
`CC/C(=C(\c1ccccc1)c1ccc(OCCN(C)C)cc1)c1ccccc1` [TAMOXIFEN CITRATE]: the IC50 with HEK293 was found to be 30 µM.
As for `COc1ccccc1C1C2=C(Sc3ccc(Cl)cc31)c1ccccc1OC2(C)C` (stereo not given), the IC50 was 48.6 µM in the test on MDA-MB-231 [1], 39.5 µM with MCF7 and more than 25 µM in the test with HEK293.
The matching figures for `COc1ccc2c(c1)C(c1ccc(SC)cc1)C1=C(O2)c2ccccc2OC1(C)C` (stereo not given): 17.1 µM, 20 µM and more than 25 µM.
Take `COc1ccccc1C1C2=C(Oc3ccc(C[C@H]4COC(C)(C)N4C(=O)OC(C)(C)C)cc31)c1ccccc1OC2(C)C` (stereo not given in full): the IC50 is 29 µM in the test with MDA-MB-231 [1], 22.3 µM with MCF7 and more than 25 µM with HEK293.
The matching figures for `COc1cccc(C2C3=C(Oc4ccc(C[C@H](N)CO)cc42)c2ccccc2OC3(C)C)c1` (stereo not given in full): 3.5 µM, 2.1 µM and more than 25 µM.
The matching figures for `CC1(C)Oc2ccccc2C2=C1C(c1cccs1)c1cc(Cl)ccc1S2` (stereo not given): 29 µM, 22.3 µM and more than 25 µM.
The matching figures for `COc1cccc2c1C(c1cccs1)C1=C(S2)c2ccccc2OC1(C)C` (stereo not given): 29 µM, 26.3 µM and more than 25 µM.
Take `COc1cccc(C2C3=C(Oc4ccc(C[C@@H](CO)NC(=O)OC(C)(C)C)cc42)c2ccccc2OC3(C)C)c1` (stereo not given in full): the IC50 was 2.9 µM in the test on MDA-MB-231 [1], 29.9 µM in the test with MCF7 and more than 25 µM in the test on HEK293.
Take `COc1ccccc1C1C2=C(Oc3ccc(C[C@H](N)CO)cc31)c1ccccc1OC2(C)C` (stereo not given in full): the outcome in the test with MDA-MB-231 [2], in the test with MDA-MB-231 [4] and with MDA-MB-231 [5] was Active. Further, the IC50 in the test with MDA-MB-231 [1] is 2.5 µM; in the test on MCF7, 2.6 µM; in the test with HEK293, more than 25 µM. Also, the Activity entry in the test with MDA-MB-231 [3] is “Dose-dependent effect”.

(Values after ChEMBL document CHEMBL4184216, “Diversity oriented synthesis of chromene-xanthene hybrids as anti-breast cancer agents” (Bioorg Med Chem Lett, 2018).)
